# Source: patent publication USRE48335E1, “Polymyxin derivatives as antimicrobial compounds” (priority 2014, dated 2020)
# Like-named read-outs stand apart in the source and are kept apart here. Positions of bridges follow the written chain, without caps; N, C: chain ends. Non-standard residues stand in square brackets, D forms with d. Residues, ends and D or L forms follow the SMILES beside them. *: point of attachment. Benzoyl(4-Ph) = O=C(c1ccc(-c2ccccc2)cc1)*; Decanoyl = CCCCCCCCCC(=O)*; Nonanoyl = CCCCCCCCC(=O)*; Octanoyl = CCCCCCCC(=O)*; Dab = NCC[C@H](N)C(=O)O; Abu = CC[C@H](N)C(=O)O; Dap = NC[C@H](N)C(=O)O; Hexanoyl = CCCCCC(=O)*; PhAc = O=C(Cc1ccccc1)*
# Experiments:
# Enterobacter cloacae = system: Enterobacter cloacae
# Outline: (§1)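 MICs were determined for the lipopeptides, tested as trifluoroacetic acid salts, by broth microdilution in cation-adjusted Mueller-Hinton broth following CLSI standards (M100-S18). Polymyxin B sulphate served as the control.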
# Klebsiella pneumoniae = system: Klebsiella pneumoniae
# Outline: as §1
# Pseudomonas aeruginosa = system: Pseudomonas aeruginosa
# Outline: as §1
# Acinetobacter baumannii = system: Acinetobacter baumannii
# Outline: as §1
# P. aeruginosa ATCC 27853 = assay: In vivo efficacy in mouse blood infection model (neutropenic Swiss mice); conditions: compound, free base 4 mg/kg intravenously 2 h after inoculation, blood at 4 h
# Protocol: P. aeruginosa ATCC 27853, A. baumannii ATCC 19606 and K. pneumoniae FADDI-KP032 were subcultured on nutrient agar plates. One colony of each bacterial strain was dispersed in 10-mL CAMHB and incubated overnight. On day 2, an aliquot (0.2 mL) of each overnight culture suspension was dispersed in 20-mL CAMHB and incubated for 1.5-2.5 h for production of early log-phase growth bacterial culture. The bacteria in the early log-phase growth suspension were concentrated by centrifugation (3,220 g for 10 min) and re-suspended in sterile 0.9% saline for inoculation into mice. The bacterial cell concentration (colony forming unit [CFU]/mL) in saline was estimated by determining the optical density (OD) of the suspension at 600 nm, and confirmed by plating the suspension on nutrient agar plates. Swiss mice (22 to 28 g) were rendered neutropenic by injecting two doses of cyclophosphamide intraperitoneally, −4 day (150 mg/kg) and −1 day (100 mg/kg) prior to inoculation. Bloodstream infection was established by injecting intravenously 50 μL of early log-phase bacterial suspension (10^8-10^9 CFU/mL). The exact injection volume for each bacterial suspension was calculated based upon the OD value of the bacterial suspension and the desired inoculum for each isolate.
# Solutions for administration of colistin, polymyxin B or the compounds were prepared at a concentration of 1 mg (free base) per mL in sterile 0.9% saline. At 2 h after inoculation, a mouse in the treatment groups was injected intravenously with one of the above solutions at 4 μL/g body weight (BW) (i.e. free base 4 mg/kg BW), while the same volume of saline was injected into the control mice. At 0 h or at 4 h after the administration of antibacterial drug or saline (control), animals were euthanised by inhalation of overdose isoflurane. The skin on the chest and fore-paws of each animal was thoroughly cleansed with 70% ethanol and Betadine®. The blood was collected via cardiac puncture using a 1-mL syringe rinsed with heparin (5,000 IU/mL), diluted serially in sterile 0.9% saline and plated on nutrient agar plates using a spiral plater.
# The agar plates were incubated at 37° C. overnight. The bacterial colonies on the plate were counted and CFU/mL of the blood was calculated. The log10 CFU/mL of blood in each mouse was calculated. The in vivo activity of the compounds against the bacteria was calculated as the difference of the log10 CFU/mL values between the treated mice and the control mice at 4 h (Δ log=log10 (treated)CFU/mL−log10 (control)CFU/mL).
# Any compound showing a decrease in bacterial loading (Δ log) of ≥2 at 4 h is considered to have good in vivo efficacy in this initial screening model.
# [1] = Enterobacter cloacae FADDI-EC001, broth microdilution in CAMHB
# [2] = Enterobacter cloacae FADDI-EC003, broth microdilution in CAMHB
# [3] = Enterobacter cloacae FADDI-EC006, broth microdilution in CAMHB
# [4] = Pseudomonas aeruginosa ATCC 27853, broth microdilution in CAMHB
# [5] = Pseudomonas aeruginosa FADDI-PA022, broth microdilution in CAMHB
# [6] = Pseudomonas aeruginosa FADDI-PA025, broth microdilution in CAMHB
# [7] = Acinetobacter baumannii ATCC 17978, broth microdilution in CAMHB
# [8] = Acinetobacter baumannii ATCC 19606, broth microdilution in CAMHB
# [9] = Acinetobacter baumannii FADDI-AB034, broth microdilution in CAMHB
SMILES,"Minimum inhibitory concentration, Ec FADDI-EC001 (Enterobacter cloacae)","Minimum inhibitory concentration, Ec FADDI-EC003 (Enterobacter cloacae)","Minimum inhibitory concentration, Ec FADDI-EC006 (Enterobacter cloacae)",MIC (Klebsiella pneumoniae),MIC (Pseudomonas aeruginosa),"Minimum inhibitory concentration, Pa ATCC 27853 (Pseudomonas aeruginosa)","Minimum inhibitory concentration, Pa FADDI-PA022 (Pseudomonas aeruginosa)","Minimum inhibitory concentration, Pa FADDI-PA025 (Pseudomonas aeruginosa)",MIC (Acinetobacter baumannii),"Minimum inhibitory concentration, Ab A ATCC 17978 (Acinetobacter baumannii)","Minimum inhibitory concentration, Ab ATCC 19606 (Acinetobacter baumannii)","Minimum inhibitory concentration, Ab FADDI-AB034 (Acinetobacter baumannii)",Δ log (Treated-Control at 4 h) (P. aeruginosa ATCC 27853),other results
CCCCCCCC(=O)N[C@@H](CCN)C(=O)N[C@H](C(=O)N[C@H](CO)C(=O)N[C@H]1CCNC(=O)[C@H]([C@@H](C)O)NC(=O)[C@H](CCN)NC(=O)[C@H](CCN)NC(=O)[C@H](CO)NC(=O)[C@@H](CC(C)C)NC(=O)[C@H](CCN)NC1=O)[C@@H](C)O [Compound 6] (Octanoyl-[Dab]T[dS][Dab][Dab][dL]S[Dab][Dab]T; lactam 4-C),0.25 µg/mL,0.25 µg/mL,0.25 µg/mL,0.5 µg/mL,>32 µg/mL,>32 µg/mL,4 µg/mL,>32 µg/mL,1 µg/mL,1 µg/mL,1 µg/mL,0.5 µg/mL,,
CCCCCC(=O)N[C@@H](CCN)C(=O)N[C@H](C(=O)N[C@H](CO)C(=O)N[C@H]1CCNC(=O)[C@H]([C@@H](C)O)NC(=O)[C@H](CCN)NC(=O)[C@H](CCN)NC(=O)[C@H]([C@@H](C)O)NC(=O)[C@@H](CC(C)C)NC(=O)[C@H](CCN)NC1=O)[C@@H](C)O [Compound 8] (Hexanoyl-[Dab]T[dS][Dab][Dab][dL]T[Dab][Dab]T; lactam 4-C),0.25 µg/mL,0.5 µg/mL,0.25 µg/mL,1 µg/mL,4 µg/mL,4 µg/mL,8 µg/mL,>32 µg/mL,2 µg/mL,2 µg/mL,2 µg/mL,1 µg/mL,−0.05 log10 CFU/mL,
CCCCCC(=O)N[C@@H](CCN)C(=O)N[C@H](C(=O)N[C@@H](CCN)C(=O)N[C@H]1CCNC(=O)[C@H]([C@@H](C)O)NC(=O)[C@H](CCN)NC(=O)[C@H](CCN)NC(=O)[C@H]([C@@H](C)O)NC(=O)[C@@H](CC(C)C)NC(=O)[C@H](CCN)NC1=O)[C@@H](C)O [Compound 26] (Hexanoyl-[Dab]T[Dab][Dab][Dab][dL]T[Dab][Dab]T; lactam 4-C),0.5 µg/mL,0.5 µg/mL,1 µg/mL,2 µg/mL,0.5 µg/mL,0.5 µg/mL,2 µg/mL,>32 µg/mL,16 µg/mL,8 µg/mL,16 µg/mL,16 µg/mL,−0.04 log10 CFU/mL,
CCCCCCCCCC(=O)N[C@@H](CCN)C(=O)N[C@H](C(=O)N[C@@H](CCN)C(=O)N[C@H]1CCNC(=O)[C@H]([C@@H](C)O)NC(=O)[C@H](CCN)NC(=O)[C@H](CCN)NC(=O)[C@H]([C@@H](C)O)NC(=O)[C@@H](CC(C)C)NC(=O)[C@H](CCN)NC1=O)[C@@H](C)O [Compound 27] (Decanoyl-[Dab]T[Dab][Dab][Dab][dL]T[Dab][Dab]T; lactam 4-C),<0.125 µg/mL,<0.125 µg/mL,0.25 µg/mL,0.5 µg/mL,1 µg/mL,1 µg/mL,1 µg/mL,16 µg/mL,1 µg/mL,1 µg/mL,1 µg/mL,1 µg/mL,−3.67 log10 CFU/mL,
CC(C)C[C@H]1NC(=O)[C@H](CCN)NC(=O)[C@@H](NC(=O)[C@H](CCN)NC(=O)[C@@H](NC(=O)[C@H](CCN)NC(=O)c2ccc(-c3ccccc3)cc2)[C@@H](C)O)CCNC(=O)[C@H]([C@@H](C)O)NC(=O)[C@H](CCN)NC(=O)[C@H](CCN)NC(=O)[C@H]([C@@H](C)O)NC1=O [Compound 29] ({Benzoyl(4-Ph)}-[Dab]T[Dab][Dab][Dab][dL]T[Dab][Dab]T; lactam 4-C),,,,,,,,,,,,,−2.80 log10 CFU/mL,"Minimum inhibitory concentration, Ec FADDI-EC001 (Enterobacter cloacae; [1]): 0.5 µg/mL; Minimum inhibitory concentration, Ec FADDI-EC003 (Enterobacter cloacae; [2]): 1 µg/mL; Minimum inhibitory concentration, Ec FADDI-EC006 (Enterobacter cloacae; [3]): 0.5 µg/mL; MIC (Klebsiella pneumoniae; K. pneumoniae FADDI-KP032): 1 µg/mL; MIC (Pseudomonas aeruginosa; P. aeruginosa ATCC 27853): 1 µg/mL; Minimum inhibitory concentration, Pa ATCC 27853 (Pseudomonas aeruginosa; [4]): 1 µg/mL; Minimum inhibitory concentration, Pa FADDI-PA022 (Pseudomonas aeruginosa; [5]): 4 µg/mL; Minimum inhibitory concentration, Pa FADDI-PA025 (Pseudomonas aeruginosa; [6]): 32 µg/mL; MIC (Acinetobacter baumannii; A. baumannii ATCC 19606): 8 µg/mL; Minimum inhibitory concentration, Ab A ATCC 17978 (Acinetobacter baumannii; [7]): 2 µg/mL; Minimum inhibitory concentration, Ab ATCC 19606 (Acinetobacter baumannii; [8]): 8 µg/mL; Minimum inhibitory concentration, Ab FADDI-AB034 (Acinetobacter baumannii; [9]): 4 µg/mL"
CC(C)C[C@H]1NC(=O)[C@H](CCN)NC(=O)[C@@H](NC(=O)[C@H](CCN)NC(=O)[C@@H](NC(=O)[C@H](CCN)NC(=O)Cc2ccccc2)[C@@H](C)O)CCNC(=O)[C@H]([C@@H](C)O)NC(=O)[C@H](CCN)NC(=O)[C@H](CCN)NC(=O)[C@H]([C@@H](C)O)NC1=O [Compound 30] (PhAc-[Dab]T[Dab][Dab][Dab][dL]T[Dab][Dab]T; lactam 4-C),,,,,,,,,,,,,−0.39 log10 CFU/mL,"Minimum inhibitory concentration, Ec FADDI-EC001 (Enterobacter cloacae; [1]): 2 µg/mL; Minimum inhibitory concentration, Ec FADDI-EC003 (Enterobacter cloacae; [2]): 2 µg/mL; Minimum inhibitory concentration, Ec FADDI-EC006 (Enterobacter cloacae; [3]): 4 µg/mL; MIC (Klebsiella pneumoniae; K. pneumoniae FADDI-KP032): 1 µg/mL; MIC (Pseudomonas aeruginosa; P. aeruginosa ATCC 27853): 1 µg/mL; Minimum inhibitory concentration, Pa ATCC 27853 (Pseudomonas aeruginosa; [4]): 1 µg/mL; Minimum inhibitory concentration, Pa FADDI-PA022 (Pseudomonas aeruginosa; [5]): 1 µg/mL; Minimum inhibitory concentration, Pa FADDI-PA025 (Pseudomonas aeruginosa; [6]): >32 µg/mL; MIC (Acinetobacter baumannii; A. baumannii ATCC 19606): 32 µg/mL; Minimum inhibitory concentration, Ab A ATCC 17978 (Acinetobacter baumannii; [7]): 32 µg/mL; Minimum inhibitory concentration, Ab ATCC 19606 (Acinetobacter baumannii; [8]): 32 µg/mL; Minimum inhibitory concentration, Ab FADDI-AB034 (Acinetobacter baumannii; [9]): 32 µg/mL"
CCCCCCCCC(=O)N[C@@H](CCN)C(=O)N[C@H](C(=O)N[C@@H](CN)C(=O)N[C@H]1CCNC(=O)[C@H]([C@@H](C)O)NC(=O)[C@H](CCN)NC(=O)[C@H](CCN)NC(=O)[C@H](CC)NC(=O)[C@@H](CC(C)C)NC(=O)[C@H](CCN)NC1=O)[C@@H](C)O [Compound 59] (Nonanoyl-[Dab]T[Dap][Dab][Dab][dL][Abu][Dab][Dab]T; lactam 4-C),1 µg/mL,1 µg/mL,0.5 µg/mL,<0.125 µg/mL,1 µg/mL,1 µg/mL,2 µg/mL,2 µg/mL,2 µg/mL,1 µg/mL,2 µg/mL,0.5 µg/mL,−2.82 log10 CFU/mL,
